Assay results taken from PubChem BioAssay AID2060338 (Molecular Pharmacology Branch, DTP, NCI, 2025).

System: 556581-035-R-J1-PDC spheroids with HUVEC/MSC, viability
Assay: Anticancer human tumor 556581-035-R-J1-PDC patient-derived ovarian carcinoma cell line growth inhibition [IpAb]
Conditions: for IC50: curve of first compound; for viability, T/C: stronger effect = lower value
Text: Combinatorial screen of targeted agents with ipatasertib and abemaciclib in multi-cell type tumor spheroids
A high-throughput screen of multi-cell type tumor spheroids was designed to identify active combinations of targeted small molecules and ipatasertib or abemaciclib. Complex spheroids include a stromal component modeled by human endothelial cells (HUVEC) and fibroblasts modeled by human mesenchymal stem cells (MSCs). The concentration ranges selected for each drug and investigational agent were based upon clinically achievable concentrations if the clinical Cmax of the agent was known.
Compounds. The drugs and investigational agents: ipatasertib (NSC767898), abemaciclib(NSC768073), selumetinib (NSC741078), trametinib (758246), adavosertib (NSC754352), everolimus (NSC733504), sapanisertib (NSC764658), vemurafenib (NSC761431), venetoclax (NSC766270), copanlisib (NSC809693), apelisib (NSC765974), palbociblib (NSC758247), vemurafenib (NSC761431), dabrafenib (NSC764134), ravoxertinib (NSC781343), BMS-387032 (NSC767048), sotorasib (NSC818433), talazoparib (NSC767125) and afursertib (NSC778305), were obtained from the National Cancer Institute (NCI) Developmental Therapeutics Program Chemical Repository. The FDA-approved anticancer drug set is available from the NCI Developmental Therapeutics Program. […] The stock solutions were prepared in dimethyl sulfoxide (DMSO, Sigma-Aldrich, St. Louis, MO, cat. D2650) at 800-fold the tested concentration and stored at -70 degrees C prior to their use. All drugs and investigational agents were tested over a range starting from a high concentration at or near the clinical Cmax and decreasing in half-log increments. If the clinical Cmax for an agent had not been determined, the highest concentration tested was 10 microM.
NCI60 Cell Culture. NCI60 cell lines were obtained from the NCI Developmental Therapeutics Program Tumor Repository. For each lot of cells, the Repository performed Applied Biosystems AmpFLSTR Identifiler testing with PCR amplification to confirm consistency with the published Identifier STR profile for each cell line. Cells were kept in continuous culture for no more than 20 passages. The optimal seeding densities for each of the cell lines at each time point assessed were determined prior to performing the concentration response studies. Briefly, the NCI60 human tumor lines were grown as monolayers in RPMI 1640 medium supplemented with 10% FBS and 2 mmol/L L-glutamine.
An additional 9 lines were from the NCI60 cell line panel including MDA-MB-231 breast carcinoma, MDA-MB-468 breast carcinoma, MCF7 breast carcinoma, Hs578T breast carcinoma, MALME-3M melanoma, SK-MEL-2 melanoma, SK-OV-3 ovarian carcinoma, DU-145 prostate carcinoma, PC-3 prostate carcinoma, all cell lines along with major genetic alterations are listed on Table 2. Pooled donor human umbilical vein endothelial cells (HUVEC, Lonza, cat. CC-2519) and human mesenchymal stem cells (hMSC, Lonza, cat. PT-2501) were purchased from Lonza (Walkersville, MD).
PDMR cell lines were grown in complete medium (DC medium): Dulbecco's modified Eagle's medium (DMEM)/F12 supplemented with 5% fetal bovine serum (FBS), 2 mM L-glutamine, 100 U/mL penicillin and 100 µg/ml streptomycin, 0.4 µg/ml hydrocortisone, 10 ng/ml epidermal growth factor (EGF) recombinant human protein, 24 µg/mL adenine, and 0.1 mg/mL primocin. During culture from frozen stock vials, PDMR cells were cultured in the same medium containing 10 µM Y-27632 (see Table 3). The PDCs were cultured in complete DMEM/F12 media without 10 microM Y-27632 dihydrochloride for at least two passages prior to the screen. The pooled donor HUVEC and hMSC were cultured in endothelial cell growth medium 2 (PromoCell, Heidelberg, Germany, cat. C-22011) and mesenchymal stem cell growth medium 2 (PromoCell, cat. C-28009), respectively. For all experiments, HUVEC and hMSC were used at passages </=5.
[…]

[1] = second compound 0.1 µM, first compound 0.0316 µM
[2] = second compound 0.1 µM, first compound 0.1 µM
[3] = second compound 0.1 µM, first compound 0.316 µM
[4] = second compound 0.1 µM, first compound 1 µM
[5] = second compound 0.1 µM, first compound 3.16 µM
[6] = second compound 0.1 µM, first compound 10 µM
[7] = second compound 0.316 µM, first compound 0.0316 µM
[8] = second compound 0.316 µM, first compound 0.1 µM
[9] = second compound 0.316 µM, first compound 0.316 µM
[10] = second compound 0.316 µM, first compound 1 µM
[11] = second compound 0.316 µM, first compound 3.16 µM
[12] = second compound 0.316 µM, first compound 10 µM
[13] = second compound 1 µM, first compound 0.0316 µM
[14] = second compound 1 µM, first compound 0.1 µM
[15] = second compound 1 µM, first compound 0.316 µM
[16] = second compound 1 µM, first compound 1 µM
[17] = second compound 1 µM, first compound 3.16 µM
[18] = second compound 1 µM, first compound 10 µM
[19] = second compound 3.16 µM, first compound 0.0316 µM
[20] = second compound 3.16 µM, first compound 0.1 µM
[21] = second compound 3.16 µM, first compound 0.316 µM
[22] = second compound 3.16 µM, first compound 1 µM
[23] = second compound 3.16 µM, first compound 3.16 µM
[24] = second compound 3.16 µM, first compound 10 µM
[25] = second compound 10 µM, first compound 0.0316 µM
[26] = second compound 10 µM, first compound 0.1 µM
[27] = second compound 10 µM, first compound 0.316 µM
[28] = second compound 10 µM, first compound 1 µM
[29] = second compound 10 µM, first compound 3.16 µM
[30] = second compound 10 µM, first compound 10 µM
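Also: spheroids exposed to compounds for 7 days before readout.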

Structure (SMILES) | IC50 (second compound 0.1 µM) [nM] | IC50 (second compound 0.316 µM) [nM] | IC50 (second compound 1 µM) [nM] | IC50 (second compound 3.16 µM) [nM] | IC50 (second compound 10 µM) [nM] | viability, T/C [1] [%] | viability, T/C [2] [%] | viability, T/C [3] [%] | viability, T/C [4] [%] | viability, T/C [5] [%] | viability, T/C [6] [%] | viability, T/C [7] [%] | viability, T/C [8] [%] | viability, T/C [9] [%] | viability, T/C [10] [%] | viability, T/C [11] [%] | viability, T/C [12] [%] | viability, T/C [13] [%] | viability, T/C [14] [%] | viability, T/C [15] [%] | also measured
Cn1nccc1Nc1nccc(-c2ccn(C(CO)c3ccc(Cl)c(F)c3)c(=O)c2)n1 (stereo not given) + CC(C)NCC(C(=O)N1CCN(c2ncnc3c2C(C)CC3O)CC1)c1ccc(Cl)cc1 | 2480 | 2330 | 165 | < 31.6 | < 31.6 | 94.8 | 75.4 | 71.8 | 62.4 | 50.2 | 31.3 | 61.6 | 79.6 | 60.1 | 51.5 | 52.2 | 13.2 | 55.8 | 61.6 | 41 | viability, T/C [16]: 29.3%; viability, T/C [17]: 24.8%; viability, T/C [18]: 9.12%; viability, T/C [19]: 48.4%; viability, T/C [20]: 36.4%; viability, T/C [21]: 38.1%; viability, T/C [22]: 22.7%; viability, T/C [23]: 11.6%; viability, T/C [24]: 5.62%; viability, T/C [25]: 35.7%; viability, T/C [26]: 31.3%; viability, T/C [27]: 27.8%; viability, T/C [28]: 17.6%; viability, T/C [29]: 12.3%; viability, T/C [30]: 1.97%
Cn1ncc(Cl)c1-c1cc(C(=O)NC(CN)Cc2cccc(F)c2)sc1Cl (stereo not given) + CC(C)NCC(C(=O)N1CCN(c2ncnc3c2C(C)CC3O)CC1)c1ccc(Cl)cc1 | 1860 | 2390 | 1900 | 1310 | 1190 | 84 | 81.2 | 68.5 | 63.4 | 40.9 | 0.2 | 37.8 | 79.6 | 67.2 | 56.8 | 47.3 | 0.21 | 70.2 | 67.2 | 67.6 | viability, T/C [16]: 55.3%; viability, T/C [17]: 45.1%; viability, T/C [18]: 0.18%; viability, T/C [19]: 55.3%; viability, T/C [20]: 74.6%; viability, T/C [21]: 54.4%; viability, T/C [22]: 54.2%; viability, T/C [23]: 37.8%; viability, T/C [24]: 1.42%; viability, T/C [25]: 51.8%; viability, T/C [26]: 55.7%; viability, T/C [27]: 51.5%; viability, T/C [28]: 53.4%; viability, T/C [29]: 32.5%; viability, T/C [30]: 4.77%
